Measurements as given in patent US20200383627A1, “TECHNIQUES FOR TREATMENT OF EPILEPTIC DISORDERS USING ELECTROPHYSIOLOGICAL BIOMARKERS AND RELATED SYSTEMS AND METHODS” (Children's Medical Center Corporation, priority 2017, published 2020).

Legend:
Assay type in all cases: in vivo, human
[1] = system: patients with infantile spasms (IS); assay: Quantitative EEG analysis (manual/automatic spike count, delta power) before and after ACTH treatment; conditions: for Delta Power Change / Spike Count (Automatic) Change / Spike Count (Manual) Change / Delta Power Follow-up / Spike Count (Manual) Follow-up / Spike Count (Automatic) Follow-up: median
Protocol: In act 602, EEG data of a subject is obtained in any manner described above in relation to act 102 of FIG. 1. In act 604, a power spectral density (PSD) of at least part of the EEG data is calculated. The PSD, as discussed above, provides information on the amount of power present in various frequency components of the EEG signal(s). As one non-limiting example, a Fast Fourier Transform (FFT) of one or more EEG signals may be performed to determine the PSD of the EEG signals. Suitable parameters of the FFT operation may include a time constant of 0.16 seconds, a sampling rate of 64 Hz, and/or an FFT window duration of 2 seconds. In some embodiments, a high-pass, low-pass and/or band-pass filter may be applied to EEG signals prior to generation of a PSD. For instance, frequencies above 35 Hz may be filtered from the EEG signals and a PSD generated based on the resulting filtered EEG signals. It will be appreciated that, because an FFT operates on a window of time of the EEG signal(s), a number of PSDs may be calculated for a number of (overlapping or non-overlapping) windows of time of the EEG signal(s). As a result, act 604 may be performed numerous times.
In act 606, a delta power is calculated based on a PSD calculated in act 604. In cases where a number of PSDs are calculated in act 604, a number of delta powers may be calculated in act 606 by calculating a delta power for each PSD. In some cases, the delta power may vary over time within the EEG signals obtained from a subject in a single session. In these cases, it may be preferable to obtain a single average value of the delta power from the EEG signals by, for instance, calculating the mean of the calculated delta power. Delta power may be calculated by determining the total spectral power present within the calculated PSD data between the frequency bounds of the delta band (e.g., 0.5 Hz to 4 Hz). In some cases, the delta power may be calculated by determining a total area under the PSD curve within the delta band's frequency range.
In act 702, EEG data of a subject is obtained in any manner described above in relation to act 102 of FIG. 1. In act 704, a plurality of wavelet coefficients may be calculated based on the EEG data obtained in act 702. As discussed above, wavelet analysis may represent a particularly desirable approach to identifying spikes due to the natural ability of wavelets to identify rapid changes in a signal's amplitude. Act 704 may comprise any suitable approach to determining wavelet coefficients, including a continuous wavelet transform (CWT), a discrete wavelet transform (DWT) and/or a stationary wavelet transform (SWT). In some embodiments, an SWT analysis may be preferable because the results are invariant with respect to time shifts, although a greater redundancy in data may be produced compared with a DWT analysis, for example. Any suitable wavelet family may be utilized during act 704, including haar, daubechies, biorthogonal, coiflets and/or symlets (e.g., symlet4).
In act 706, spikes are identified from the wavelet coefficients determined in act 704. Act 706 may comprise identifying a number of instances in which the wavelet coefficients have values above or below a suitable threshold that represents an incidence of a spike, to produce a spike count. A spike frequency may be determined by dividing the spike count by the total amount of time represented by the EEG data.
Fifty out of these 150 patients had original EEG data available for analysis met criteria for the comparison of baseline and follow-up electrophysiological evaluation.
The magnitude of changes in the EEG parameters (spike quantification and slow wave activity) were more prominent in patients responders as compared to non-responders (MSC diff: 169 vs.44 spikes; p<0.001, ASCA diff: 157 vs.55 spikes; p<0.001, DP diff: 11.3 vs.2.3, Sf diff: 158 vs. 60; p<0.05 respectively in responders vs. non-responders, Table 5).

[2] = system: patients with infantile spasms (IS); assay: EEG pattern (hypsarrhythmia) at follow-up assessment after ACTH treatment
From the text: The presence of hypsarrhythmia is often used as a diagnostic criteria for IS, and is characterized by an abnormal interictal pattern consisting of high amplitude and irregular waves and spikes in a background of chaotic and disorganized activity within the EEG signals.
At baseline, 54 (36%) had hypsarrhythmia pattern, 75 (50%) had modified hypsarrhythmia pattern, and 21 (14%) had other abnormalities (without hypsarrhythmia) (Table 1). At the follow-up assessment, 58 patients with good response had abnormal EEG findings (abnormalities other than hypsarrhythmia, such as multifocal spikes or sharp waves, abnormal slow wave and fast activity). In terms of the EEG pattern, there was no difference between poor- and good responders, and between the patients who relapsed and the sustained responders (Tables 2-3).
(§1) Different criteria have been utilized to determine response to treatment in previous studies. Our EEG responder criteria are consistent with the criteria used in several previous studies, comprising IS freedom for at least seven consecutive days during treatment, and disappearance of hypsarrhythmia on follow-up EEG assessment. Although the presence of hypsarrhythmia has been considered crucial for the diagnosis and evaluating treatment response in IS, hypsarrhythmia may not be present at diagnosis in 25% of cases. Lack of hypsarrhythmia may be seen in patients with prior AED treatment, the early phase of IS, and late onset of spasms. […] Our findings highlight the importance of new quantitive biomarkers for evaluating EEGs in IS.

[3] = system: patients with infantile spasms (IS); assay: Clinical outcome assessment of ACTH treatment (spasms frequency, response, relapse); parameters: Sf diff (spasms frequency, baseline minus follow-up) / Seizure frequency, Follow-up / Spasms frequency Follow-up / Spasms frequency Change: unit not given here; conditions: for Spasms frequency Change / Spasms frequency Follow-up: median
From the text: One-hundred-fifty (83 males; 55%) out of 170 patients were included for the clinical outcome assessment study. Mean age of spasms onset was 6.6 (±3.4) months. The mean time to treatment and follow-up duration were 39 (±50) and 38 (±49) days, respectively. Fifty-one out of 150 (34%) of patients had abnormal MRI findings.
The etiology of IS was: genetic/inborn metabolic in 28 (19%), unknown in 71 (47%), and structural brain abnormality (acquired and congenital) in 51 (34%). […] During the ACTH treatment, 86 (57%) patients were receiving concomitant ASMs (Table 1).
One hundred-one of 150 patients (67%) were deemed responders to the ACTH treatment at follow-up assessment, with IS cessation and resolution of hypsarrhythmia (Table 2). Thirty out of 101 initial responders (30%) experienced a relapse. Clinical parameters such as age of onset, sex, MRI finding, previous seizure history, previous and concomitant AED treatment, etiology, and baseline EEG were not prognostic factors for response and relapse (Tables 2-3).
as §1

[4] = Patients without Relapse (n: 20)
[5] = patients with sustained response
[6] = percentage of 101 initial responders

Adrenocorticotropic hormone (SYSMEHFRWGKPVGKKRRPVKVYPNGAEDESAEAFPLEF; Corticotropin; UniProt P01189 138-176, looked up) [ACTH, polypeptide tropic hormone produced by and secreted by the anterior pituitary gland; used to treat infantile spasms]
Delta Power Change ([1]; Good responder (n: 31)): 10.2 | Spike Count (Automatic) Change ([1]; Good responder (n: 31)): 144 | Spike Count (Manual) Change ([1]; Good responder (n: 31)): 153 | Delta Power Follow-up ([1]; Good responder (n: 31), baseline 24.7): 13.4 | Spike Count (Manual) Follow-up ([1]; Good responder (n: 31), baseline 232): 48 | Spike Count (Automatic) Follow-up ([1]; Good responder (n: 31), baseline 244): 53 | Delta Power Change ([1]; Patients with Relapse (n: 11)): 6 | Spike Count (Automatic) Change ([1]; Patients with Relapse (n: 11)): 50 | Spike Count (Manual) Change ([1]; Patients with Relapse (n: 11)): 51 | Delta Power Follow-up ([1]; Patients with Relapse (n: 11), baseline 23.6): 17.1 | Spike Count (Manual) Follow-up ([1]; Patients with Relapse (n: 11), baseline 187): 86 | Spike Count (Automatic) Follow-up ([1]; Patients with Relapse (n: 11), baseline 197): 117 | Delta Power Change [1, 4]: 14.6 | Spike Count (Automatic) Change [1, 4]: 176 | Spike Count (Manual) Change [1, 4]: 212 | Delta Power Follow-up ([1]; Patients without Relapse (n: 20), baseline 26.4): 10.5 | Spike Count (Manual) Follow-up ([1]; Patients without Relapse (n: 20), baseline 247): 10 | Spike Count (Automatic) Follow-up ([1]; Patients without Relapse (n: 20), baseline 257): 28.5 | Delta Power Change ([1]; Poor responder (n: 19)): 3.1 | Spike Count (Automatic) Change ([1]; Poor responder (n: 19)): 47 | Spike Count (Manual) Change ([1]; Poor responder (n: 19)): 52 | Delta Power Follow-up ([1]; Poor responder (n: 19), baseline 21.7): 19.5 | Spike Count (Automatic) Follow-up ([1]; Poor responder (n: 19), baseline 236): 152 | Spike Count (Manual) Follow-up ([1]; Poor responder (n: 19), baseline 242): 168 | DP (delta power) at follow-up EEG ([1]; n: 50, baseline 25.1, p<0.001): 17.2 μV | Delta Power, Follow-up EEG ([1]; n: 50, mean, baseline 25.1): 17.2 | Spike Count Automatic, Follow-up EEG ([1]; n: 50, mean, baseline 232): 113 | Spike Count Manual, Follow-up EEG ([1]; n: 50, mean, baseline 234): 112 | ASCA diff (automatic spike count, baseline minus follow-up) ([1]; patients who relapsed): 75 | DP diff (delta power, baseline minus follow-up) ([1]; patients who relapsed): 5.4 | MSC diff (manual spike count, baseline minus follow-up) ([1]; patients who relapsed): 76 | ASCA diff (automatic spike count, baseline minus follow-up) [1, 5]: 202 | DP diff (delta power, baseline minus follow-up) [1, 5]: 14.6 | MSC diff (manual spike count, baseline minus follow-up) [1, 5]: 220 | ASCA diff (automatic spike count, baseline minus follow-up) ([1]; responders): 157 spikes | DP diff (delta power, baseline minus follow-up) ([1]; responders): 11.3 | MSC diff (manual spike count, baseline minus follow-up) ([1]; responders): 169 spikes | Follow-up EEG features: Normal EEG, number of patients ([2]; n: 150): 44 | Follow-up EEG features: Without Hypsarrhythmia, number of patients ([2]; n: 150, baseline 21): 94 | Follow-up EEG features: Hypsarrhythmia, number of patients ([2]; n: 150, baseline 54): 6 | Follow-up EEG features: Modified Hypsarrhythmia, number of patients ([2]; n: 150, baseline 75): 6 | Follow-up EEG features: Normal EEG, share of patients ([2]; percentage of n: 150): (29.3) | Follow-up EEG features: Without Hypsarrhythmia, share of patients ([2]; percentage of n: 150, baseline (14)): (62.7) | Follow-up EEG features: Hypsarrhythmia, share of patients ([2]; percentage of n: 150, baseline (36)): (4) | Follow-up EEG features: Modified Hypsarrhythmia, share of patients ([2]; percentage of n: 150, baseline (50)): (4) | relapse rate among initial responders ([3]; 30 of 101 initial responders): 30% | response rate (responders to the ACTH treatment at follow-up: IS cessation and resolution of hypsarrhythmia) ([3]; 101 of 150 patients, follow-up after day 14 of treatment): 67% | Spasms frequency follow up/week ([3]; Good Response (n): 101, baseline 318): 80 /week | Spasms frequency Change ([3]; Good responder (n: 31)): 84 | Spasms frequency Follow-up ([3]; Good responder (n: 31), baseline 122): 0 | Spasms frequency Change ([3]; Patients with Relapse (n: 11)): 11 | Spasms frequency Follow-up ([3]; Patients with Relapse (n: 11), baseline 140): 42 | Spasms frequency Change [3, 4]: 117 | Spasms frequency Follow-up ([3]; Patients without Relapse (n: 20), baseline 117): 0 | Spasms frequency follow up/week ([3]; Poor Response (n): 49, baseline 242): 233 /week | Spasms frequency Change ([3]; Poor responder (n: 19)): 43 | Spasms frequency Follow-up ([3]; Poor responder (n: 19), baseline 105): 70 | Spasms frequency follow up/week ([3]; Relapse (n): 30, baseline 311): 270 /week | Spasms frequency follow up/week ([3]; Without Relapse (n): 71, baseline 322): 0 /week | Seizure frequency, Follow-up ([3]; n: 50, mean, baseline 192): 70 | Clinical response No, number of patients ([3]; n: 150): 49 | Clinical response Yes, number of patients ([3]; n: 150, IS cessation and resolution of hypsarrhythmia at follow-up): 101 | spasm frequency after ACTH treatment (median weekly) ([3]; n: 150, before treatment 294, p<0.001): 130 | Follow up spasms frequency ([3]; n: 150, mean (SD), baseline 294/week): 130 /week | Sf diff (spasms frequency, baseline minus follow-up) ([3]; non-responders): 60 | Relapse (if good response exist) No, number of patients ([3]; of 101 initial responders): 71 | Relapse (if good response exist) Yes, number of patients ([3]; of 101 initial responders): 30 | Relapse (if good response exist) No, share of patients [3, 6]: (70.3) | Relapse (if good response exist) Yes, share of patients [3, 6]: (29.7) | Clinical response No, share of patients ([3]; percentage of n: 150): (32.7) | Clinical response Yes, share of patients ([3]; percentage of n: 150): (67.3) | Sf diff (spasms frequency, baseline minus follow-up) ([3]; responders): 158
